Measured values published in ChEMBL document CHEMBL4406850, “Review about the multi-target profile of resveratrol and its implication in the SGK1 inhibition” (Eur J Med Chem, 2019).
The source made the active and inactive calls. No cut-off for these calls is given here.

What was measured:
Huh-7 [1] = assay: Antiproliferative activity against human HuH7 cells transfected with ShSGK1 assessed as reduction in cell viability at 100 uM incubated for 48 hrs by trypan blue dye based assay; format: functional
Huh-7 [2] = assay: Induction of apoptosis in human HuH7 cells assessed as increase in early apoptotic cells at 100 uM incubated for 48 hrs by annexin V and 7-AAD staining based assay; format: functional, cell-based
Huh-7 [3] = assay: Antiproliferative activity against human HuH7 cells overexpressing EGFP assessed as reduction in cell viability at 100 uM incubated for 48 hrs by trypan blue dye based assay; format: functional
[4] = target: T1, Serine/threonine-protein kinase Sgk1 (Homo sapiens) (UniProt O00141); assay: Inhibition of insulin-induced SGK1 in human HUH7 cells at 100 uM using peptide as substrate incubated for 6 hrs by scintillation counter method; format: cell-based
T1 sequence (whole entry): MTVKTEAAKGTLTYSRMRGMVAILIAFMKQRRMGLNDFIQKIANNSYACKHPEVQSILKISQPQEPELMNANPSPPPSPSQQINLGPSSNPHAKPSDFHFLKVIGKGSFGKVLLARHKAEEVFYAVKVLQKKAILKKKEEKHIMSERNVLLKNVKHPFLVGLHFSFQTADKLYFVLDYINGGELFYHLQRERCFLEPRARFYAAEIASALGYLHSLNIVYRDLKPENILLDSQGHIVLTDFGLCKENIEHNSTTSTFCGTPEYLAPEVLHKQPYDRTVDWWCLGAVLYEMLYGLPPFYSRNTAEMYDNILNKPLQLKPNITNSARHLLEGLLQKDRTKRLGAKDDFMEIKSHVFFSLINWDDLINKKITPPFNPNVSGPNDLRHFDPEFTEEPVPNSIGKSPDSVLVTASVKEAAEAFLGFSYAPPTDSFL

[5] = target: T1, Serine/threonine-protein kinase Sgk1 (Homo sapiens); assay: Inhibition of SGK1 in human HuH7 cells assessed as reduction in insulin-induced MDM2 phosphorylation on Ser166 at 100 uM incubated for 6 hrs by Western blot analysis; format: cell-based
[6] = target: T1, Serine/threonine-protein kinase Sgk1 (Homo sapiens); assay: Inhibition of recombinant human N-terminal His-tagged SGK1 using (GRPRTSSFAEGKK) peptide as substrate incubated for 30 mins in presence of [32P] gamma ATP by scintillation counter method
Huh-7 [7] = assay: Induction of apoptosis in human HuH7 cells overexpressing SGK1 at 100 uM incubated for 48 hrs by annexin V and 7-AAD staining based assay; format: functional, cell-based
Huh-7 [8] = assay: Induction of apoptosis in human HuH7 cells transfected with ShSGK1 assessed as late apoptosis at 100 uM incubated for 48 hrs by annexin V and 7-AAD staining based assay; format: functional, cell-based
Huh-7 [9] = assay: Induction of apoptosis in human HuH7 cells assessed as increase in late apoptotic cells at 100 uM incubated for 48 hrs by annexin V and 7-AAD staining based assay; format: functional, cell-based
Huh-7 [10] = assay: Induction of apoptosis in human HuH7 cells overexpressing EGFP at 100 uM incubated for 48 hrs by annexin V and 7-AAD staining based assay; format: functional, cell-based
Huh-7 [11] = assay: Antiproliferative activity against human HuH7 cells overexpressing SGK1 assessed as reduction in cell viability at 100 uM incubated for 48 hrs by trypan blue dye based assay; format: functional
[12] = target: T1, Serine/threonine-protein kinase Sgk1 (Homo sapiens); assay: Inhibition of recombinant human N-terminal His-tagged SGK1 at 50 uM using (GRPRTSSFAEGKK) peptide as substrate incubated for 30 mins in presence of [32P] gamma ATP by scintillation counter method
[13] = target: T1, Serine/threonine-protein kinase Sgk1 (Homo sapiens); assay: Inhibition of SGK1 in human HUH7 cells at 100 uM using peptide as substrate incubated for 6 hrs by scintillation counter method; format: cell-based
Huh-7 [14] = assay: Antiproliferative activity against human HuH7 cells assessed as reduction in cell viability at 100 uM incubated for 48 hrs by trypan blue dye based assay; format: functional
Huh-7 [15] = assay: Induction of apoptosis in human HuH7 cells transfected with ShSGK1 assessed as early apoptosis at 100 uM incubated for 48 hrs by annexin V and 7-AAD staining based assay; format: functional, cell-based
Huh-7 [16] = assay: Induction of apoptosis in human HuH7 cells assessed as increase in necrotic cells at 100 uM incubated for 48 hrs by annexin V and 7-AAD staining based assay; format: functional, cell-based

- inhibition [4]: Active
- inhibition [5]: Active
- inhibition [6]: Dose-dependent effect
- inhibition [12]: 50%
- inhibition [13]: inactive
SMILES: Oc1ccc(/C=C/c2cc(O)cc(O)c2)cc1
- Activity (Huh-7 [1]): Active
- Activity (Huh-7 [2]): Active
- Activity (Huh-7 [3]): Active
- Activity (Huh-7 [7]): inactive
- Activity (Huh-7 [8]): Active
- Activity (Huh-7 [9]): Active
- Activity (Huh-7 [10]): Active
- Activity (Huh-7 [11]): inactive
- Activity (Huh-7 [14]): Active
- Activity (Huh-7 [15]): Active
- Activity (Huh-7 [16]): Active
